From patent publication US11136351B2 (priority 2016, dated 2021)
Where a name gives a salt, the structure may show the parent alone. Read-outs that look alike come from different tables or passages of the source.

Assays:
human α9α10 nAChRs = human α9α10 nAChRs (Homo sapiens, UniProt Q9GZZ6+Q9UGM1); details: cited from earlier work
human α9α10 nAChR = biological target: T1, human α9α10 nAChR (Homo sapiens, UniProt Q9GZZ6+Q9UGM1); assay type: cell-based; details: 1 μM
T1 construct: expressed in transfected cells; host or cells: Xenopus laevis oocytes
T1 sequence (Q9UGM1 26-479 limits assumed): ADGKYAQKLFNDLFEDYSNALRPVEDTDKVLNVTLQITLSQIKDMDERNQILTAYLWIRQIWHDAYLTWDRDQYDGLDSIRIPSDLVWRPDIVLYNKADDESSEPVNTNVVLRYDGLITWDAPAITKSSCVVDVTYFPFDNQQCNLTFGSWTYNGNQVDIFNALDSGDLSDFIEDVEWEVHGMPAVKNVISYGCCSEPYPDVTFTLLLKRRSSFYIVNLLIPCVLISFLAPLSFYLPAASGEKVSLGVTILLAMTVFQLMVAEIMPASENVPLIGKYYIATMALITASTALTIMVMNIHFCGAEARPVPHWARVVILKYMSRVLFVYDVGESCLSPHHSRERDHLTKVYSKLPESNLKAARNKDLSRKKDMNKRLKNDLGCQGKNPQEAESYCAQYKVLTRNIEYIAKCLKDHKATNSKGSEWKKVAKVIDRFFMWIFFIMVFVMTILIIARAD
T1 sequence (Q9GZZ6 25-450): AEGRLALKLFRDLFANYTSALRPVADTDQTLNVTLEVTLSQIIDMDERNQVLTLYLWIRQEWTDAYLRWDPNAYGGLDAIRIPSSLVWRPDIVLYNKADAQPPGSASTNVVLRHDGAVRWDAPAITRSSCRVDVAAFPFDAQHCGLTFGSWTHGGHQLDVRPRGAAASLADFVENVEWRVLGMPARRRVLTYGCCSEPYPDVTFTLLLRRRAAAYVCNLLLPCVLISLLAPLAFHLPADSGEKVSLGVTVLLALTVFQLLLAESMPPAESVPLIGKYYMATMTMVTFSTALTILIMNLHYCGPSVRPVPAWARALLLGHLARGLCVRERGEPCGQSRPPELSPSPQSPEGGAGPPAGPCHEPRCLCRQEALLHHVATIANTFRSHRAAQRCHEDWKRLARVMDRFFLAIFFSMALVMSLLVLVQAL

[1] = tested on: HVA calcium channels in rat DRG neurons; assay type: cell-based
α7 nAChRs = α7 nAChRs (Homo sapiens, UniProt P36544); details: cited from earlier work
Sequence of α7 nAChRs (P36544 23-502 limits assumed): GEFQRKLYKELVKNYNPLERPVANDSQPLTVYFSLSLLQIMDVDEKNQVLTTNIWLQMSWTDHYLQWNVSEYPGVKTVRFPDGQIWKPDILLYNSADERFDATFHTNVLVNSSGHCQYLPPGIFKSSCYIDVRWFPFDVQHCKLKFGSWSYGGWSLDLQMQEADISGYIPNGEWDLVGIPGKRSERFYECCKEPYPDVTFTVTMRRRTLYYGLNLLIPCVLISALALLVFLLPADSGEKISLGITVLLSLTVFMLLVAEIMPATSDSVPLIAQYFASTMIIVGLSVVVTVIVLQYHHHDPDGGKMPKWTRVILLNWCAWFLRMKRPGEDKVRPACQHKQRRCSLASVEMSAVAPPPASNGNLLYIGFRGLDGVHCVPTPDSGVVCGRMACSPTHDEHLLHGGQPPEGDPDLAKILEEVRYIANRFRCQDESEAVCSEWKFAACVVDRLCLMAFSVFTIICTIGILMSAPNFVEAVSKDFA

rat α9α10 nAChRs = rat α9α10 nAChRs (Rattus norvegicus, UniProt P43144+Q9JLB5); details: cited from earlier work
Sequence of rat α9α10 nAChRs (P43144 26-479 limits assumed): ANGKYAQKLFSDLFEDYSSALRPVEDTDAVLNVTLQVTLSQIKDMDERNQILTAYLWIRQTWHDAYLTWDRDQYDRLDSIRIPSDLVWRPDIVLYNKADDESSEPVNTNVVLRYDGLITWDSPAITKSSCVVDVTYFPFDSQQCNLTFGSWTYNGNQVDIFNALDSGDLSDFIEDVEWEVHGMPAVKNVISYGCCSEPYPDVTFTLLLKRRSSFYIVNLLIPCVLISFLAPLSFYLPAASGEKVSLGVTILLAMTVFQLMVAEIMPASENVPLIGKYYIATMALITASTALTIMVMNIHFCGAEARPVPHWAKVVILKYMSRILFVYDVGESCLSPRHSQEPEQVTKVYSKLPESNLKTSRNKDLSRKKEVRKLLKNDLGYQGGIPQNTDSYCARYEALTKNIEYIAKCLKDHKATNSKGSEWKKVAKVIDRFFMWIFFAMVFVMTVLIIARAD
Sequence of rat α9α10 nAChRs (Q9JLB5 25-447 limits assumed): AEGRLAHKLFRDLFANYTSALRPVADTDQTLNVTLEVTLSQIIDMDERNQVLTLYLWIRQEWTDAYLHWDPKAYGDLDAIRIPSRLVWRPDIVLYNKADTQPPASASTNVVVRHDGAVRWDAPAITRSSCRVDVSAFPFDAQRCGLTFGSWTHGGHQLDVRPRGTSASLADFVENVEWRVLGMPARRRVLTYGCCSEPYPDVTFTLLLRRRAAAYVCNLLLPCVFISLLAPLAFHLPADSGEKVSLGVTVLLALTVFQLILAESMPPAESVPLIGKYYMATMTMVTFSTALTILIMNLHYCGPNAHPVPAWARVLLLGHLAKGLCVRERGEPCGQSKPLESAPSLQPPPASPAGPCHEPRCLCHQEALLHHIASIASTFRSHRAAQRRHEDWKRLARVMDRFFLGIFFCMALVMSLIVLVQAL

mouse HVA Ca^2+ channel = assay type: cell-based; details: 50 μM

Sequence of human α9α10 nAChRs (Q9UGM1 26-479 limits assumed): as the sequence (Q9UGM1 26-479 limits assumed) above
Sequence of human α9α10 nAChRs (Q9GZZ6 25-450): as the sequence (Q9GZZ6 25-450) above

Row | Molecule | IC50 (human α9α10 nAChRs) [nM] | human α9α10 nAChR I/Icontrol ± SEM (n) (human α9α10 nAChR) | inhibition of HVA calcium currents by globular, ribbon and beads isomers [1] | rat HVA Ca^2+ channel I/Icontrol ± SEM (n) ([1]; 1 μM) | IC50 (α7 nAChRs) [nM] | IC50 (rat α9α10 nAChRs) [nM] | mouse HVA Ca^2+ channel I/Icontrol ± SEM (n) (mouse HVA Ca^2+ channel) | peak ICa inhibition (mouse HVA Ca^2+ channel) [%] | reversibility of IBa inhibition [1] | IBa I/Icontrol ± SEM (n) ([1]; 50 μM) | fraction of total IBa suppressed ([1]; 50 μM) [%] | rat HVA Ca^2+ channel I/Icontrol ± SEM (n) ([1]; 50 μM)
1 | Vc1.1 | 765 | 0.57 ± 0.020 (17) | found to inhibit HVA calcium currents | 0.73 ± 0.03 (4) | ~7100 | 64 |  |  |  |  |  | 
2 | NC[C@H](CC(=O)O)c1ccc(Cl)cc1 [Baclofen, R-(+)-baclofen hydrochloride] |  |  |  |  |  |  | 0.60 ± 0.03 (11) | 41.5±2.7 | reversible on washout | 0.64 ± 0.018 (36) | ~35 | 0.64 ± 0.01 (33)
